Here are results for 19 compounds from patent publication US5618812A, “Benzodiazepine derivatives” (Merck Sharp & Dohme, Ltd., priority 1992, dated 1997).

Counter-ions that a name gives are not always drawn. Like-named read-outs stand apart in the source and are kept apart here. A value given as a limit tells only on which side of the number the result lay.

In one assay the target is T1, CCK-A (Rattus norvegicus, UniProt P30551).
T1 sequence (P30551 1-444): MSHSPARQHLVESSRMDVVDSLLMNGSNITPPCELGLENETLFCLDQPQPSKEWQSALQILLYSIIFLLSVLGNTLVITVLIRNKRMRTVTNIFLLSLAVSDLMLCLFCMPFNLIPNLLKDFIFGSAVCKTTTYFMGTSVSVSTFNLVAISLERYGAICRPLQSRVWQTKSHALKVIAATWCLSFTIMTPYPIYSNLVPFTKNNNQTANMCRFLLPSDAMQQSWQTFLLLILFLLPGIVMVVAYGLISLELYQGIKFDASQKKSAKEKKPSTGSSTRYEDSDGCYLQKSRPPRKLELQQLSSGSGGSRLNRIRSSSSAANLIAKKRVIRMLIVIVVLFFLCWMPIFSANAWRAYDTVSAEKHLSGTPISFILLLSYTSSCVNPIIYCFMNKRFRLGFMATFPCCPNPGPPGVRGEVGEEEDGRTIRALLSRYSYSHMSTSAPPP
Put plainly: biochemical. Type of assay: binding. How it is done: The CCK-A and CCK-B antagonising activity of the compounds described herein was evaluated using the assays described in published European patent application no. 0514133. The method essentially involves determining the concentration of the test compound required to displace 50% of the specific ^125 I-CCK from rat pancreas (CCK-A) or guinea pig brain (CCK-B).

For another assay, the target named is T2, CCK-B (Cavia porcellus, UniProt H0VZC5).
T2 construct: guinea pig brain (CCK-B); from tissue; host or cells: guinea pig brain
T2 sequence (H0VZC5 1-426): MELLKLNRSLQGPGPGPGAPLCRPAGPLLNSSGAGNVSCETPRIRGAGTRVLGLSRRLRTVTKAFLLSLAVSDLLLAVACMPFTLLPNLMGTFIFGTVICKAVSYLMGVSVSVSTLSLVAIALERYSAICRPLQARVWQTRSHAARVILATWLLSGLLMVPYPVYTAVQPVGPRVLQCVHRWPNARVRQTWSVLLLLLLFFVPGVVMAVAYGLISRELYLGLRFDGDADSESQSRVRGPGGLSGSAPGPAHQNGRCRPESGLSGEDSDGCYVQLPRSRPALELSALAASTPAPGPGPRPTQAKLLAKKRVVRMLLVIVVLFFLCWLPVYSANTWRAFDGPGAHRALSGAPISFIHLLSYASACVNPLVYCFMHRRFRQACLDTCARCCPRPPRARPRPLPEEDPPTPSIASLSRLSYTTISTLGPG
Put plainly: displacement of specific 125I-CCK from guinea pig brain (CCK-B receptor binding). How it is done: The CCK-A and CCK-B antagonising activity of the compounds described herein was evaluated using the assays described in published European patent application no. 0514133. The method essentially involves determining the concentration of the test compound required to displace 50% of the specific ^125 I-CCK from rat pancreas (CCK-A) or guinea pig brain (CCK-B). The data in Table 1 were obtained for compounds of the Examples.

The mark [1] stands for this setting: CCK RECEPTOR BINDING RESULTS IC50 125I-CCK Pancreas, rat pancreas (CCK-A), 125I-CCK.
The mark [2] stands for this setting: CCK RECEPTOR BINDING RESULTS IC50 125I-CCK Brain.
Where [3] appears, read: read-out: CCK RECEPTOR BINDING RESULTS IC50 125I-CCK Pancreas.
[4] abbreviates: read-out: CCK RECEPTOR BINDING RESULTS IC50 125I-CCK Brain.
Setting [5] is: rat pancreas (CCK-A), 125I-CCK, read-out: CCK RECEPTOR BINDING RESULTS IC50 125I-CCK Pancreas.

Consider `CN1C(=O)C(NC(=O)Nc2cccc(F)c2)N=C(N2CC3CCC(CC3)C2)c2ccccc21` (single isomer, unassigned; (-)) [Example 36, (-)-N-[5-(3-Azabicyclo[3,2,2]nonan-3-yl)-2,3-dihydro-1-methyl-2-oxo-1H-1,4-benzodiazepin-3-yl]-N'-[3-fluorophenyl]urea Hydrochloride], for which the IC50 (as a rule, the concentration that gives 50% inhibition) on CCK-A (setting [1]) came out at 1400 nM; on CCK-B (setting [2]), 0.32 nM.
With `Cc1cccc(NC(=O)NC2N=C(N3CC4CCC(C4)C3)c3ccccc3N(C)C2=O)c1` (single isomer, unassigned; (-)) [Example 39, (-)-N-[5-(3-Azabicyclo[3,2,1]octan-3-yl)-2,3-dihydro-1-methyl-2-oxo-1H-1,4-benzodiazepin-3-yl]-N'-[3-methylphenyl]urea Hydrochloride], the IC50 on CCK-A (setting [3]) worked out at 4010 nM; at CCK-B (setting [4]), 0.17 nM.
As for `CN1C(=O)C(NC(=O)Nc2ccc3c(c2)CCC3)N=C(N2CC3CCC(CC3)C2)c2ccccc21` (single isomer, unassigned; (-)) [Example 41, (-)-N-[5-(3-Azabicyclo[3,2,2]nonan-3-yl)-2,3-dihydro-1-methyl-2-oxo-1H-1,4-benzodiazepin-3-yl]-N'-[5-indanyl]urea], the IC50 is above 3000 nM at CCK-A (setting [5]) and 0.37 nM at CCK-B (setting [2]).
On to `Cc1ccc(NC(=O)NC2N=C(N3CC4CCC(CC4)C3)c3ccccc3N(C)C2=O)cc1F` (single isomer, unassigned; (-)) [Example 45, (-)-N-[5-(3-Azabicyclo[3,2,2]nonan-3-yl)-2,3-dihydro-1-methyl-2-oxo-1H-1,4-benzodiazepin-3-yl]-N'-[3-fluoro-4-methylphenyl]urea Hydrochloride], for which the IC50 on CCK-A (setting [1]) is above 3000 nM; at CCK-B (setting [2]), 0.42 nM.
In the case of `CN1C(=O)C(NC(=O)Nc2cccc(I)c2)N=C(N2CC3CCC(CC3)C2)c2ccccc21` (single isomer, unassigned; (-)) [Example 48, (-)-N-[5-(3-Azabicyclo[3,2,2]nonan-3-yl)-2,3-dihydro-1-methyl-2-oxo-1H-1,4-benzodiazepin-3-yl]-N'-[3-iodophenyl]urea], the IC50 at CCK-A (setting [5]) stood at 2420 nM; at CCK-B (setting [2]), 1.11 nM.
As to `Cc1cc(NC(=O)NC2N=C(N3CC4CCC(CC4)C3)c3ccccc3N(C)C2=O)ccc1F` (single isomer, unassigned; (-)) [Example 53, (-)-N-[5-(3-Azabicyclo[3,2,2]nonan-3-yl)-2,3-dihydro-1-methyl-2-oxo-1H-1,4-benzodiazepin-3-yl]-N'-[4-fluoro-3-methylphenyl]urea Hydrochloride], the IC50 on CCK-A (setting [1]) was found to be 3760 nM; on CCK-B (setting [2]), 0.18 nM.
Consider `CN1C(=O)C(NC(=O)Nc2cccc(C(F)(F)F)c2)N=C(N2CC3CCC(CC3)C2)c2ccccc21` (single isomer, unassigned; (-)) [Example 55, (-)-N-[5-(3-Azabicyclo[3,2,2]nonan-3-yl)-2,3-dihydro-1-methyl]-2-oxo-1H-1,4-benzodiazepin-3-yl]-N'-[3-trifluoromethylphenyl]urea Hydrochloride], for which the figures for the IC50 at CCK-A (setting [5]) and at CCK-B (setting [2]) were above 3000 nM and 0.73 nM, respectively.
For `Cc1cccc(NC(=O)NC2N=C(N3C[C@H]4CCCC[C@H]4C3)c3ccccc3N(C)C2=O)c1` (single isomer, unassigned; (-)) [Example 58, (-)-N-[2,3-Dihydro-1-methyl-5-(cis-octahydroisoindol-2-yl)-2-oxo-1H-1,4-benzodiazepin-3-yl]-N'-[3-methylphenyl]urea hydrochloride], the IC50 was found to be 2260 nM on CCK-A (setting [3]) and 2 nM at CCK-B (setting [4]).
For `CCCN1C(=O)C(NC(=O)Nc2cccc(C)c2)N=C(N(C)C2CCCCC2)c2ccccc21` (single isomer, unassigned; (-)) [Example 61, (-)-5-(N-Cyclohexyl-N-methylamino)-2,3-dihydro-2-oxo-1-propyl-1H-1,4-benzodiazepin-3-yl-N'[3-methylphenyl]urea], the IC50 stood at 704 nM at CCK-A (setting [5]) and 0.22 nM on CCK-B (setting [4]).
For `Cc1cccc(NC(=O)NC2N=C(N(C)C3CCCCC3)c3ccccc3N(C)C2=O)c1` (single isomer, unassigned; (-)) [Example 64, (-)5-(N-Cyclohexyl-N-methylamine)-2,3-dihydro-2-oxo-1-methyl-1H-1,4-benzodiazepin-3-yl-N'-[3-methylphenyl]urea. Hydrochloride], in that order: 2070 nM and 0.22 nM.
For `Cc1cccc(NC(=O)NC2N=C(N(C)C3CCCCCC3)c3ccccc3N(C)C2=O)c1` (single isomer, unassigned; (-)) [Example 67, (-)-5-(N-Cycloheptyl-N-methylamino)-2,3-dihydro-1-methyl-2-oxo-1H-1,4-benzodiazepin-3-yl-N'-[3-methylphenyl]urea, Hydrochloride], in that order: 2000 nM and 0.1 nM.
The corresponding values for `CN1C(=O)C(NC(=O)Nc2ccc3c(c2)CCC3)N=C(N(C)C2CCCCCC2)c2ccccc21` (single isomer, unassigned; (-)) [Example 70, (-)-5-(N-Cycloheptyl-N-methylamino)-2,3-dihydro-1-methyl-2-oxo-1H-1,4-benzodiazepin-3-yl-N'-[5-indanyl]urea. Hydrochloride] are above 3000 nM and 0.61 nM.
Turning to `CN1C(=O)C(NC(=O)c2cc3ccccc3[nH]2)N=C(N2CC3CCC(CC3)C2)c2ccccc21` (single isomer, unassigned; (-)) [Example 88, (-)-N-(5-(3-Azabicyclo[3,2,2]nonan-3-yl)-2,3-dihydro-1-methyl-2-oxo-1H-1,4-benzodiazepin-3-yl)-1H-indole-2-carboxamide hydrochloride], the IC50 at CCK-A (setting [1]) was determined as 393 nM; on CCK-B (setting [2]), 66 nM.
Consider `Cc1cccc(NC(=O)NC2N=C(N3[C@H](C)CCC[C@@H]3C)c3ccccc3N(C)C2=O)c1` (stereo partly drawn) [Example 6, N-[3(R,S)-2,3-Dihydro-5-(cis-2,6-dimethylpiperidin-1-yl)-1-methyl-2-oxo-1H-1,4-benzodiazepin-3-yl]N'-[3-methylphenyl]urea], for which the IC50 stood at 235 nM on CCK-A (setting [5]) and 10.9 nM at CCK-B (setting [4]).
With `C[C@@H]1CCC[C@H](C)N1C1=NC(NC(=O)Nc2ccc3c(c2)CCC3)C(=O)N(C)c2ccccc21` (stereo partly drawn) [Example 13, N-[3(R,S)-2,3-Dihydro-5-(cis-2.6-dimethylpiperidin-1-yl)-1-methyl-2-oxo-1H-1,4-benzodiazepin-3-yl]N'-[indan-5-yl]urea], the results for the IC50 at CCK-A (setting [5]) and on CCK-B (setting [4]) were 496 nM and 1.53 nM, respectively.
The corresponding values for `Cc1cccc(NC(=O)NC2N=C(N3C[C@@H](C)O[C@@H](C)C3)c3ccccc3N(C)C2=O)c1` (stereo partly drawn) [Example 16, N-[3(R,S)-2,3-Dihydro-5-(cis-2,6-dimethylmorpholin-4-yl)-1-methyl-2-oxo-1H-1,4-benzodiazepin-3-yl]N'-[3-methylphenyl]urea] are 2650 nM and 19.1 nM.
For `CCCN1C(=O)C(NC(=O)Nc2cccc(C)c2)N=C(N2C[C@@H]3C[C@H]2CN3C)c2ccccc21` (stereo partly drawn) [Example 32, N-[3(R,S)-2,3-Dihydro-5-((1S,4S)-5-methyl-2,5-diazabicyclo-[2,2,1]heptan-2-yl)-2-oxo-1-propyl-1H-1,4-benzodiazepin-3-yl]-N'-[3-methylphenyl]urea], the IC50 is above 3000 nM on CCK-A (setting [5]) and 22 nM on CCK-B (setting [4]).
The corresponding values for `CC(C)CN1C(=O)C(NC(=O)[C@@H]2Cc3ccccc3N2)N=C(N2CCCCCC2)c2ccccc21` (stereo partly drawn) [Example 93, 3(R,S)-N-(2,3-Dihydro-5-(homopiperidin-1-yl)-1-(2-methylpropyl)-2-oxo-1H-1,4-benzodiazepin-3-yl)-(2S)-indoline-2-carboxamide] are 101 nM and 348 nM.
The corresponding values for “(+)-[5-(N-Cycloheptyl-N-methylamino)-2,3-dihydro-1ethyl-2-oxo-1H-1,4-benzodiazepin-3-yl ]-N'-[5-indanyl ]urea Hydrochloride [Example 71]” are 145 nM and 86 nM.
